In brackets after ≈: the same amount, converted by molar mass. Starred links: 1 amine or outer side, 2 acyl side, 3 side chain; linkers in the order of their positions; H or OH if unused. Non-standard residues stand in square brackets, D forms with d. Residues, ends and D or L forms follow the SMILES beside them. ξ: configuration not given here. *: point of attachment. X1 = CCC(=O)C[C@@H](O)C[C@@H](C)C[C@H](N[*:1])C(=O)[*:2]; Alaψ(CH2NMeCH2CH2OH) = C[C@@H](CN(C)CCO)N*; Decanoyl(2R-Me) = CCCCCCCC[C@@H](C)C(=O)*; Ile(3ξ) = CCC(C)[C@H](N)C(=O)O; ξβ3hP = O=C(O)CC1CCCN1; Aib = CC(C)(N)C(=O)O Where only a bound is given, the exact number is not on record here.

Consider eight molecules from ChEMBL document CHEMBL5226287, “Small organic molecules targeting the energy metabolism of Mycobacterium tuberculosis” (Eur J Med Chem, 2021).

What all share (type): functional
The subject of test [1] is Mycobacterium tuberculosis. The test is described as follows: Antimycobacterial activity against Mycobacterium tuberculosis QcrBT mutant assessed as reduction in bacterial growth.
Test [2] concerns Mycobacterium tuberculosis. The experiment in a line: Antibacterial activity against Mycobacterium tuberculosis H37Rv resistant isoniazid by CLSI broth microdilution method. The following applies: route inh. A general note: Dilution methods test growth across graded concentrations, often in twofold steps.
For test [3], the system named is Mycobacterium tuberculosis. The test is described as follows: Antibacterial activity against Mycobacterium tuberculosis H37Rv resistant rifampicin by CLSI broth microdilution method.
Test [4] relates to Mycobacterium tuberculosis. The experiment in a line: Antibacterial activity against isoniazid-resistant Mycobacterium tuberculosis H37Rv assessed as bacterial growth inhibition by microdilution method.
For test [5], the system named is Mycobacterium tuberculosis. The experiment in a line: Antibacterial activity against rifampicin-resistant Mycobacterium tuberculosis H37Rv assessed as bacterial growth inhibition by microdilution method.
The test system of test [6] is Mycobacterium tuberculosis. The experiment in a line: Antibacterial activity against drug resistant Mycobacterium tuberculosis H37Rv in the presence of ATP synthase.
Test [7] has as its system Mycobacterium tuberculosis. The test is described as follows: Antibacterial activity against Mycobacterium tuberculosis H37Rv overexpressed in ATP synthase.

In general, MIC90 refers to the lowest concentration that inhibits either 90% of growth or 90% of the strains tested, depending on the study. Consider `Cc1ccn2c(C(=O)NCc3ccccc3)c(C)nc2c1`, for which the MIC90 in test [1] was found to be 6.5 µM (≈ 1.82 µg/mL). One may read the MIC as the lowest concentration found to suppress growth. Regarding `CCCc1cc(OCC(=O)Nc2ccccc2OC)c2cc(OC)ccc2n1`, the MIC in test [2] and in test [3] was 0.01 µg/mL (≈ 0.0263 µM) each time. With `Cc1cn2c(C(=O)NCc3ccc(C(F)(F)F)cc3)c(C)nc2s1`, the MIC in test [4] and in test [5] was less than 0.04 µM each time.

On to `CN(C)Cc1ccc(-c2cc3cc(Br)ccc3nc2OCc2ccncc2)cc1`, for which the MIC in test [6] amounted to 0.48 µg/mL. For `Cc1cn2c(C(=O)NCc3ccc(N4CCN(c5ccc(C(F)(F)F)cn5)CC4)c(F)c3)c(C)nc2s1`, the MIC in test [4] is less than 0.506 µM; in test [5] it was less than 0.201 µM. Take `CN(C)CCN1CCN(c2ccc(-c3cc4cc(Br)ccc4nc3OCc3ccc4ccccc4c3)cc2)CC1`: the MIC in test [6] came out at 0.94 µg/mL. Consider `Cc1ccn2c(C(=O)NCc3cccc(OC(C)C)c3)c(C)nc2c1`, for which, in test [1], the MIC90 was more than 20 µM. As for `CCCCCCCC[C@@H](C)C(=O)N1CCCC1CC(=O)N[C@@H](C[C@H](C)C[C@H](O)CC(=O)CC)C(=O)NC(C)(C)C(=O)NC(C)(C)C(=O)N[C@H](C(=O)N[C@H](C(=O)NC(C)(C)C(=O)NC(C)(C)C(=O)N[C@@H](C)CN(C)CCO)C(C)C)C(C)CC` (stereo partly drawn) ({Decanoyl(2R-Me)}-[ξβ3hP][X1][Aib][Aib][Ile(3ξ)]V[Aib][Aib]-{Alaψ(CH2NMeCH2CH2OH)}), the lowest concentration to inhibit growth in test [7] (MIC) was 0.12 µg/mL (≈ 0.102 µM).
